In ChEMBL document CHEMBL5050830, “Novel antibacterial compounds” (2013):
Calls of active or inactive are those of the source. No cut-off for these calls is given here.

Experiments:
NAD kinase 1 = target: T1, NAD kinase 1 (Listeria monocytogenes serovar 1/2a (strain ATCC BAA-679 / EGD-e), UniProt Q8Y8D7); test: Inhibition of His-tagged Listeria monocytogenes NADK1 in presence of glucose-6-phosphate dehydrogenase and NADP measured by spectrophotometry method
T1 sequence (Q8Y8D7 whole entry): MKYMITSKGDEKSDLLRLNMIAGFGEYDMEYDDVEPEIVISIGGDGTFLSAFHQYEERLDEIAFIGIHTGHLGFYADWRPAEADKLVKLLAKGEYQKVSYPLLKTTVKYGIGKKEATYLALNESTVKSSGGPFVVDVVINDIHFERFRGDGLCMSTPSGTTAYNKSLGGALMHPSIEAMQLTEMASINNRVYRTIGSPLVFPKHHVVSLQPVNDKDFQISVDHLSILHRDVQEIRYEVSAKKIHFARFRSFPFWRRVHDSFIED

[1] = Inhibition of His-tagged Staphylococcus aureus NADK in presence of glucose-6-phosphate dehydrogenase and NADP measured by spectrophotometry method
Staphylococcus aureus [2] = test: Antibacterial activity against Staphylococcus aureus S25 strain at 1 ug/ml assessed as decrease in number of colony forming units relative to control; type: functional, organism-based; conditions: dose 1.0 µg/ml
HeLa = test: Cytotoxicity against human HeLa cells at 10 uM assessed as change in cell shape and multiplication after 96 hrs; type: toxicity, cell-based
Staphylococcus aureus [3] = test: Antibacterial activity against Staphylococcus aureus S25 strain at 8 ug/ml assessed as decrease in number of colony forming units relative to control; type: functional, organism-based; conditions: dose 8.0 µg/ml
Staphylococcus aureus [4] = test: Antibacterial activity against Staphylococcus aureus S25 strain at 10 ug/ml assessed as decrease in number of colony forming units relative to control; type: functional, organism-based; conditions: dose 10.0 µg/ml

SMILES	Ki (NAD kinase 1)	Ki [1]	Activity (Staphylococcus aureus [2])	Activity (HeLa)	also measured
NC[C@H]1O[C@@H](n2c(Br)nc3c(N)ncnc32)[C@H](O)[C@@H]1O	–	–	–	–	IC50 (NAD kinase 1): 300 µM
Nc1ncnc2c1ncn2[C@@H]1O[C@H](COCC#Cc2nc3c(N)ncnc3n2[C@@H]2O[C@H](CO)[C@@H](O)[C@H]2O)[C@@H](O)[C@H]1O	20 µM	15 µM	Active	Non-Toxic	–
CN[C@H](CC(C)C)C(=O)N[C@H]1C(=O)N[C@@H](CC(N)=O)C(=O)N[C@H]2C(=O)N[C@H]3C(=O)N[C@H](C(=O)N[C@H](C(=O)O)c4cc(O)cc(O)c4-c4cc3ccc4O)[C@H](O)c3ccc(c(Cl)c3)Oc3cc2cc(c3O[C@@H]2O[C@H](CO)[C@@H](O)[C@H](O)[C@H]2O[C@H]2C[C@](C)(N)[C@H](O)[C@H](C)O2)Oc2ccc(cc2Cl)[C@H]1O	–	–	–	–	Activity (Staphylococcus aureus [3]): Active
Nc1ncnc2c1ncn2[C@@H]1O[C@H](CNCC#Cc2nc3c(N)ncnc3n2[C@@H]2O[C@H](CO)[C@@H](O)[C@H]2O)[C@@H](O)[C@H]1O	–	–	–	Non-Toxic	Activity (Staphylococcus aureus [4]): Active
NC[C@H]1O[C@@H](n2c(SCC(=O)NC[C@H]3O[C@@H](n4cnc5c(N)ncnc54)[C@H](O)[C@@H]3O)nc3c(N)ncnc32)[C@H](O)[C@@H]1O	30 µM	50 µM	Active	Non-Toxic	–
